According to patent US20080153886A1, “Use Of Heterocyclic Compounds As Neurogenic Agents” (NEUROPHARMA, S.A., priority 2005, published 2008):

Each compound was assayed on Neurospheres of the cerebral cortex and hippocampus of 2-day-old postnatal rats (assay: Neurosphere differentiation test (immunofluorescence with anti-GFAP / anti-MAP2 antibodies)). Conditions: neurospheres grown 7 days in suspension with compound, 24 h on polylysine slides; versus basal (no compound); confocal images.
Format: cell-based, rat
Method: Neurospheres of the cerebral cortex and hippocampus of 2-day-old postnatal rats were grown in suspension culture for 7 days in the presence or absence of a formula (I) compound according to the invention, after which they were transferred to slides covered with polylysine and 24 h later (once adhered) immunofluorescence analyses were performed with anti-GFAP antibodies to view the astrocyte differentiation, or with anti-MAP2 to view neuronal differentiation. The images were captured on a TCS SP2 confocal microscope (Leica Microsystems).

Row | SMILES | astrocyte differentiation of cells present in isolated neurospheres (anti-GFAP immunofluorescence) | neuronal differentiation of cells present in isolated neurospheres (anti-MAP2 immunofluorescence)
1 | O=c1sn(Cc2ccccc2)c(=O)n1Cc1ccccc1 [compound [1], 2,4-dibenzyl-[1,2,4]thiadiazolidine-3,5-dione] | induces | induces
2 | O=c1sn(-c2ccc(Oc3ccccc3)cc2)c(=O)n1Cc1ccccc1 [compound [4], 4-benzyl-2-(4-phenoxy-phenyl)-[1,2,4]thiadiazolidine-3,5-dione] | induces | induces
3 | O=c1sn(C(c2ccccc2)c2ccccc2)c(=O)n1Cc1ccccc1 [compound [3], 2-Benzhydryl-4-benzyl-[1,2,4]thiadiazolidine-3,5-dione] | induces | induces
4 | O=c1sn(-c2cccc3ccccc23)c(=O)n1Cc1ccccc1 [compound [2], 4-benzyl-2-naphthalene-1-yl-[1,2,4]thiadiazolidine-3,5-dione] | induces | induces
